According to patent US20210338658A1, “MACROLIDE COMPOUNDS AND THEIR USE IN LIVER STAGE MALARIA AND RELATED DISEASE” (The Johns Hopkins University, priority 2014, published 2021):
Entries after “also recorded” stand apart in the source; their conditions may differ.

What was measured:
P. berghei sporozoites [1] = test: In vivo liver stage assay (mouse liver parasite load by real-time PCR); details: for inhibitory effect on parasite proliferation in mice (in words): two doses 24 hours apart; for side effects in the mice: after two doses; for effect on parasite growth in mice (in words): dose not given
Experimental: Approximately 10,000 sporozoites were inoculated by tail vein injection and mice were sacrificed 40 hours later, livers were harvested, placed in RNAzol and parasite levels determined by realtime PCR from cDNA from reverse transcription. Relative fluorescent units were compared to control to determine percent inhibition. Cethromycin (CET) was administered only once while the other drugs were given twice 24 hours apart from each dose. […] Error is standard error of mean of three mice with real time PCR performed in duplicate for transcript levels in each mouse.
Mice were kept in Johns Hopkins Bloomberg School of Public Health mouse facility according to the ACUC animal protocol number MO09H401. Six week old C57BL/6 mice weighing about 20-22 g were divided into groups of three. 12,000 P. berghei sporozoites in a 200 μL volume were injected into mice through tail veins. Two hours after injection, different dilutions of drugs in 100-200 μL volumes were delivered to mice by oral gavage using a plastic feeding tube. A second dose of drugs was given 24 hours after the first one to the mice that were on a daily dosing regimen. Approximately 40 hours post-infection, mice infected with P. berghei sporozoites were anesthetized by inhaling Metofane® and sacrificed for harvesting whole livers. Each mouse liver was immediately put into 10 mL of Trizol® Reagent and fully homogenized. After RNA isolation, the RNA was diluted to 100 ng/mL for reverse-transcription reactions. For a 30 μL reaction, the components were set up as: 3.5 μL of nuclease-free water, 3 μL of 10× Buffer II and 10 mM dNTPs, 6 μL of MgCl2 solution, 1.5 μL of 50 μM Random Hexamers, RNase Inhibitor and MuLV Reverse Transcriptase, 10 μL of RNA sample. cDNA products were stored at −20° C. For a 10 μL real-time quantitative PCR, the components were set up as: 0.2 μL of 10 μM forward and reverse primer 18s P. berghei, 5 μL of 2×SYBR Green PCR Master Mix, 1.6 μL of nuclease-free water, and 3 μL of cDNA sample. All test subjects were done in duplicates including positive and negative controls. When real-time PCR was finished, all data were baselined and normalized to the housekeeping gene before further analysis. The specific sequences of primers (The Core DNA Analysis Facility—JHU, Baltimore, Md.) were: 5′-[…]-3′ (SEQ ID NO: 1) and 5′-[…]-3′(SEQ ID NO: 2) for P. berghei ANKA 18s and 5′-[…]1TAGC-3′ (SEQ ID NO: 3) and 5′-[…]-3′ (SEQ ID NO: 4) for mouse HPRT.

P. berghei sporozoites [2] = test: In vitro malaria liver stage assay (infected Hepa1-6 cells counted by anti-HSP70 immunofluorescence); format: cell-based, Plasmodium berghei; details: for reduction of parasite multiplication / growth in vitro: 10 μM
Experimental: 3A. […] Error is standard error of the mean of duplicate wells performed in biologic replicate. 3B. […] 50,000 Hepa1-6 cells were seeded in each well 24 hours prior to infection with 50,000 P. berghei sporozoites. The 2E6 anti-HSP70 antibody was used for immunofluorescent numeration of infected cells.
Drugs were purchased from either Sigma or Ambinter. In each chamber of 8-well LabTek tissue culture slides, 50,000 mouse hepatoma cells, Hepa1-6, were seeded one day before infection. Cells were normally cultured in DMEM supplemented with 10% FBS, 1× L-glutamine and 1× Pen-Strep at 37° C. and 5% CO2. Once incubated with P. berghei sporozoites, the culture medium supplement was changed to 2.5% FBS, 1× L-glutamine and 2× Pen-Strep. Before treatment with drugs, the cells were washed four times with DMEM containing 10× Pen-Strep and 5 ug/mL fungicide. After 24 hours, fresh culture medium containing drugs was added to each chamber. Approximately 42 hours post-infection, the growth medium was removed and 100% cold methanol was added for 15 minutes to fix the cells. After washing with sterile PBS, cells were incubated in PBS with 5% FBS for blocking. Then 2E6 anti-HSP70 antibody was diluted to 10 μg/mL in PBS with 5% FBS and added in a 200 μL volume to cells. One hour later, cells were washed with PBS and incubated with 10 μg/mL Alexafour 594 anti-mouse secondary antibody. In order to visualize hepatocytes, nuclear counterstain DAPI was incubated with cells for 5 minutes and then washed off. The plastic chambers and silicone gasket were removed and slide was fully dried before mounted and sealed with cover slides. When preparation was complete, slide was taken to the fluorescence microscope for examination. Representative areas were randomly selected from each chamber and the numbers of infected cells were counted for a similar number of microscopic fields. The level of inhibition was determined by comparing the average of each chamber containing treated cells with that of the controls.
Five compounds were procured while cethromycin was synthesized. Cethromycin was directly synthesized from erythromycin by substituting the cladinose sugar at C3 with a keto-group, attaching a cyclic carbamate group at C11-C12, and tethering the quinoline moiety to the C6 alcohol. We used the in vitro P. berghei ANKA model on mouse hepatoma cells, Hepa1-6. […] Quinoline, erythromycin and their combination were also tested to investigate the role the quinoline plays in the antimalarial activity of cethromycin. […] Due to limited synthesized amounts of cethromycin, only one dose was given to mice while other drugs and compounds were administered twice.

Plasmodium = details: reference molecules of the training set; read-out: liver stage inhibition; cited from earlier work
[3] = over 5,000 humans, single day dosing; cited from earlier work

COc1cc(NC(C)CCCN)c2ncccc2c1 (stereo not drawn) [primaquine]
inhibition of liver parasites in mice (P. berghei sporozoites [1]; primaquine 15 mg/kg, oral gavage): 83%

O=C(/C=C/c1ccc(Cl)cc1Cl)Nc1cc(S(=O)(=O)N2CCCCC2)ccc1Cl [T0510-7064, (E)-N-(2-chloro-5-piperidin-1-ylsulfonylphenyl)-3-(2,4-dichlorophenyl)prop-2-enamide]
reduction of parasite multiplication / growth in vitro (P. berghei sporozoites [2]; Hepa1-6 cells): 54%
parasite inhibition in vitro (in words) (P. berghei sporozoites [2]; Hepa1-6 cells): measurable inhibitory effect
inhibitory effect on parasite proliferation in mice (in words) (P. berghei sporozoites [1]; 50 mg/kg): significant inhibitory effect
side effects in the mice (P. berghei sporozoites [1]; 50 mg/kg): without causing any notable side effects

c1ccc2ncccc2c1 [quinoline]
parasite inhibition in vitro (in words) (P. berghei sporozoites [2]; Hepa1-6 cells): Neither quinoline, nor erythromycin, nor their combination showed any parasite inhibition; also recorded: inactive; also recorded: no activity
effect on parasite growth in mice (in words) (P. berghei sporozoites [1]; oral gavage): only marginal inhibitory effect; also recorded: no activity
effect on parasite growth in mice (in words) (P. berghei sporozoites [1]; oral gavage, listed as quinolone): only marginal effect

CC[C@@]1([C@@H]2O[C@@H]([C@H]3O[C@@](O)(CO)[C@H](C)C[C@@H]3C)C[C@@H]2C)CC[C@H]([C@]2(C)CC[C@]3(C[C@H](O)[C@@H](C)[C@@H]([C@@H](C)[C@@H](OC)[C@H](C)C(=O)O)O3)O2)O1 [monensin]
IC50 (Plasmodium): 1 pM

CC[C@H]1OC(=O)[C@H](C)[C@@H](O[C@H]2C[C@@](C)(OC)[C@@H](O)[C@H](C)O2)[C@H](C)[C@@H](O[C@@H]2O[C@H](C)C[C@H](N(C)C)[C@H]2O)[C@](C)(O)C[C@@H](C)C(=O)[C@H](C)[C@@H](O)[C@]1(C)O [erythromycin]
parasite inhibition in vitro (in words) (P. berghei sporozoites [2]; Hepa1-6 cells): Neither quinoline, nor erythromycin, nor their combination showed any parasite inhibition; also recorded: inactive; also recorded: no activity
effect on parasite growth in mice (in words) (P. berghei sporozoites [1]; oral gavage): only marginal inhibitory effect; also recorded: no activity

CC[C@H]1OC(=O)[C@H](C)C(=O)[C@H](C)[C@@H](O[C@@H]2O[C@H](C)C[C@H](N(C)C)[C@H]2O)[C@@](C)(OC/C=C/c2cnc3ccccc3c2)C[C@@H](C)C(=O)[C@H](C)[C@H]2NC(=O)O[C@@]21C [Cethromycin, (1R,2R,4R,6S,7R,8R,10R,13R,14S)-7-[(2S,3R,4S,6R)-4-(dimethylamino)-3-hydroxy-6-methyloxan-2-yl]oxy-13-ethyl-2,4,6,8,10,14-hexamethyl-6-[(E)-3-quinolin-3-ylprop-2-enoxy]-12,15-dioxa-17-azabicyclo[12.3.0]heptadecane-3,9,11,16-tetrone]
inhibition of liver stage malaria in vitro (reduction of parasite growth) (P. berghei sporozoites [2]; 20 μM, Hepa1-6 cells): 54%
parasite inhibition in vitro (in words) (P. berghei sporozoites [2]; Hepa1-6 cells): measurable inhibitory effect; also recorded: active
inhibition at 20 µM (P. berghei sporozoites [2]; Plasmodium berghei, Hepa1-6, 20 μM, Hepa1-6 cells, read-out: inhibition of liver stage malaria in vitro (reduction of parasite growth)): 52%
inhibition of liver parasites in mice (P. berghei sporozoites [1]; 12 mg/kg, oral gavage): about 16%
reduction of parasite load in mouse liver (P. berghei sporozoites [1]; 50 mg/kg, oral gavage, one dose, liver 40 hours post-infection): 60%
effect on parasite load in mice (in words) (P. berghei sporozoites [1]; cethromycin 12 mg/kg): only partially effective
effect on parasite growth in mice (in words) (P. berghei sporozoites [1]; oral gavage): active
safety in humans [3]: used safely

CCN(CC)S(=O)(=O)c1cccc(-c2nnc(SC(C)C(=O)Nc3ccc(C)c(S(=O)(=O)N(CC)CC)c3)n2Cc2ccccc2)c1 (stereo not drawn) [T5531873, 2-[[4-benzyl-5-[3-(diethylsulfamoyl)phenyl]-1,2,4-triazol-3-yl]sulfanyl]-N-[3-(diethylsulfamoyl)-4-methylphenyl]propanamide]
reduction of parasite multiplication / growth in vitro (P. berghei sporozoites [2]; Hepa1-6 cells): over 95%
inhibition of liver stage malaria in vitro (P. berghei sporozoites [2]; FIG. 3, concentration not given): ~95%
parasite inhibition in vitro (in words) (P. berghei sporozoites [2]; Hepa1-6 cells): measurable inhibitory effect
inhibitory effect on parasite proliferation in mice (in words) (P. berghei sporozoites [1]; 50 mg/kg): significant inhibitory effect
side effects in the mice (P. berghei sporozoites [1]; 50 mg/kg): without causing any notable side effects

O=C(COC(=O)c1cccnc1SCC(=O)Nc1cc(S(=O)(=O)N2CCOCC2)ccc1Cl)Nc1cc(S(=O)(=O)N2CCOCC2)ccc1Cl [T0507-9950, [2-(2-chloro-5-morpholin-4-ylsulfonylanilino)-2-oxoethyl] 2-[2-(2-chloro-5-morpholin-4-ylsulfonylanilino)-2-oxoethyl]sulfanylpyridine-3-carboxylate]
parasite inhibition in vitro (in words) (P. berghei sporozoites [2]; Hepa1-6 cells): measurable inhibitory effect
inhibitory effect on parasite proliferation in mice (in words) (P. berghei sporozoites [1]; 50 mg/kg): significant inhibitory effect
side effects in the mice (P. berghei sporozoites [1]; 50 mg/kg): without causing any notable side effects
